Reference: article PMC4678037 (Neuropharmacology, 2015)
Like-named read-outs stand apart in the source and are kept apart here. Marks after values point to notes of the source that are not given here.

Experiments:
hCB1R = hCB1R (Homo sapiens, UniProt P21554); assay type: biochemical
mCB1R = mCB1R (Mus musculus, UniProt P47746); assay type: biochemical
body weight [1] = assay: Body weight loss in mice on ad lib. 'cafeteria' diet, 3 wks repeated p.o.; assay type: in vivo, mouse; conditions: approximate, vehicle-corrected, AZ data on file
CB1R [2] = assay: Change in [11C]SD5024 binding in pons after CB1R antagonists; assay type: in vivo, cynomolgus monkeys (Macaca fascicularis)
body weight [3] = assay: 10-day Phase I Multiple Ascending Dose; assay type: in vivo, human; conditions: 10-day Phase I MAD; doses giving plasma concentrations comparable to ~20–30% brain CB1R occupancy; AZ data on file
CB1R [4] = assay: PET CB1R occupancy with [11C]SD5024 in striatum
[5] = tested on: body weight / suicidality; conditions: ref FDA, 2007, cited from earlier work
[6] = cited from earlier work
CB1R [7] = conditions: across species, ref Fong et al., 2007, Burns et al., Addy et al., 2008a, Proietto et al., 2010, Aronne et al., Hadcock et al.; cited from earlier work
[8] = Whole brain uptake of radioligand; assay type: in vivo, cynomolgus monkeys (Macaca fascicularis); conditions: i.v. bolus of radioligand, 42 PET measurements
CB1R [9] = conditions: binding to CB1R; ref Donohue et al., 2008a,b; cited from earlier work

Chain of mCB1R (P47746 whole entry): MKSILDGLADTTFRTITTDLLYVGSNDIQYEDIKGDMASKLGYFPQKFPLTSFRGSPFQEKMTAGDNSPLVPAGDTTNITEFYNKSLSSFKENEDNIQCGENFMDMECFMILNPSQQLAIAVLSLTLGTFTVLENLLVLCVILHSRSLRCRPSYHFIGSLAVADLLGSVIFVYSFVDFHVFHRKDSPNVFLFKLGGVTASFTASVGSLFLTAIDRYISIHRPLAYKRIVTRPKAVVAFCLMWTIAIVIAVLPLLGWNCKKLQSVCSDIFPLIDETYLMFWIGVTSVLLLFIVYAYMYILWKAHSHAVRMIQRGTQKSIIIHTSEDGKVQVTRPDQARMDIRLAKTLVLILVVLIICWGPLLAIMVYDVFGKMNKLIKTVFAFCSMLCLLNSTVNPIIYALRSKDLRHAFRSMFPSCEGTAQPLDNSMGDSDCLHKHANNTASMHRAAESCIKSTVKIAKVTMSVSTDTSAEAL
Chain of hCB1R (P21554 whole entry): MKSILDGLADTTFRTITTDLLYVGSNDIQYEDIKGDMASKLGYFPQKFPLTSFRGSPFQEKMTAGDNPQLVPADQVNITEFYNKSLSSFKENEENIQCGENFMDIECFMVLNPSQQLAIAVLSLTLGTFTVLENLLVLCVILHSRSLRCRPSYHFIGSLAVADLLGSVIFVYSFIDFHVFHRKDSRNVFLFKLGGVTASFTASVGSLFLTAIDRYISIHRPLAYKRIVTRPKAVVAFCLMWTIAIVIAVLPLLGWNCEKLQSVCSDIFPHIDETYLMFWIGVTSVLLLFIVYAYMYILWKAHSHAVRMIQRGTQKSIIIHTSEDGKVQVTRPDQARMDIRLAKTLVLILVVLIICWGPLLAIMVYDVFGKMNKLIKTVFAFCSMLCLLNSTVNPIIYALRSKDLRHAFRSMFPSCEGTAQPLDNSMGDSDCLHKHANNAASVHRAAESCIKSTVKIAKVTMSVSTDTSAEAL

## Cc1c(C(=O)NN2CCCCC2)nc(-c2ccc(Cl)cc2Cl)n1-c1ccc(OS(=O)(=O)CCC(F)(F)F)cc1 [AZ compound 1, 4-[2-(2,4-Dichlorophenyl)-5-methyl-4-(piperidin-1-ylcarbamoyl)-1H-imidazol-1-yl]phenyl 3,3,3-trifluoropropane-1-sulfonate]
hCB1R
  Ki: 0.19 ± 0.01 nM
mCB1R
  Ki: 0.03 ± 0.002 nM
Body weight [1]
  Maximal in vivo body weight loss (% of baseline): ~23–25% of baseline
CB1R [2]; 6.0 mg/kg (highest dose)
  AUC50–122min difference compared to baseline: −20%
Body weight [3]
  Effect on body weight: tended to reduce body weight
CB1R [4]; striatum, 0.03 mg/kg i.v., monkey 1, plasma 0 μmol/L, data for 50–93 min
  Receptor Occupancy: 0.4 ^* %
CB1R [4]; striatum, 0.3 mg/kg i.v., monkey 1, plasma 0.038 μmol/L, 50–122 min
  Receptor Occupancy: 35%
CB1R [4]; striatum, 0.3 mg/kg i.v., monkey 2, plasma 0.055 μmol/L, data for 50–93 min
  Receptor Occupancy: 23 ^* %
CB1R [4]; striatum, 1.0 mg/kg i.v., monkey 2, plasma 0.154 μmol/L, 50–122 min
  Receptor Occupancy: 73%
CB1R [4]; striatum, 2.0 mg/kg i.v., monkey 3, plasma 0.999 μmol/L, 50–122 min
  Receptor Occupancy: 88%
CB1R [4]; striatum, 6.0 mg/kg i.v., monkey 3, plasma 2.220 μmol/L, 50–122 min
  Receptor Occupancy: 99%

## Cc1c2c(n(-c3ccc(Cl)cc3Cl)c1-c1ccc(OS(=O)(=O)CCC(F)(F)F)cc1)CCN(N1CCCCC1)C2=O [AZ compound 2, 4-[1-(2,4-Dichlorophenyl)-3-methyl-4-oxo-5-piperidin-1-yl-4,5,6,7-tetrahydro-1H-pyrrolo[3,2-c]pyridin-2-yl]phenyl 3,3,3-trifluoropropane-1-sulfonate]
hCB1R
  Ki: 0.2 ± 0.01 nM
mCB1R
  Ki: 0.02 ± 0.001 nM
Body weight [1]
  Maximal in vivo body weight loss (% of baseline): ~30% of baseline
CB1R [2]; 2.0 mg/kg (highest dose)
  AUC50–122min difference compared to baseline: −23%
CB1R [4]; striatum, 0.06 mg/kg i.v., monkey 2, plasma 0.023 μmol/L, 50–122 min
  Receptor Occupancy: 0.6%
CB1R [4]; striatum, 0.2 mg/kg i.v., monkey 1, plasma 0.050 μmol/L, 50–122 min
  Receptor Occupancy: −10%
CB1R [4]; striatum, 0.2 mg/kg i.v., monkey 4, plasma 0.057 μmol/L, 50–122 min
  Receptor Occupancy: 9.2%
CB1R [4]; striatum, 0.25 mg/kg i.v., monkey 5, plasma 0.083 μmol/L, 50–122 min
  Receptor Occupancy: 1.4%
CB1R [4]; striatum, 0.3 mg/kg i.v., monkey 2, plasma 0.143 μmol/L, 50–122 min
  Receptor Occupancy: 35%
CB1R [4]; striatum, 0.6 mg/kg i.v., monkey 5, plasma 0.252 μmol/L, 50–122 min
  Receptor Occupancy: 64%
CB1R [4]; striatum, 1.0 mg/kg i.v., monkey 4, plasma 0.401 μmol/L, 50–122 min
  Receptor Occupancy: 69%
CB1R [4]; striatum, 2.0 mg/kg i.v., monkey 1, plasma […], 50–122 min
  Receptor Occupancy: 78%

## Cc1c2c(n(-c3ccc(F)cc3Cl)c1-c1ccc(OS(=O)(=O)CCC(F)(F)F)cc1)CCN(N1CCCCC1)C2=O [AZ compound 3, 4-[1-(2-Chloro-4-fluorophenyl)-3-methyl-4-oxo-5-piperidin-1-yl-4,5,6,7-tetrahydro-1H-pyrrolo[3,2-c]pyridin-2-yl]phenyl 3,3,3-trifluoropropane-1-sulfonate]
hCB1R
  Ki: 0.24 ± 0.01 nM
mCB1R
  Ki: 0.03 ± 0.002 nM
Body weight [1]
  Maximal in vivo body weight loss (% of baseline): ~30% of baseline
CB1R [2]; 0.6 mg/kg (highest dose)
  AUC50–122min difference compared to baseline: −23%
CB1R [4]; striatum, 0.02 mg/kg i.v., monkey 4, plasma 0.001 μmol/L, 50–122 min
  Receptor Occupancy: −18%
CB1R [4]; striatum, 0.06 mg/kg i.v., monkey 3, plasma […], 50–122 min
  Receptor Occupancy: 0.7%
CB1R [4]; striatum, 0.06 mg/kg i.v., monkey 4, plasma 0.020 μmol/L, 50–122 min
  Receptor Occupancy: −12%
CB1R [4]; striatum, 0.2 mg/kg i.v., monkey 4, plasma 0.084 μmol/L, 50–122 min
  Receptor Occupancy: 14%
CB1R [4]; striatum, 0.4 mg/kg i.v., monkey 3, plasma 0.245 μmol/L, 50–122 min
  Receptor Occupancy: 59%
CB1R [4]; striatum, 0.6 mg/kg i.v., monkey 4, plasma 0.275 μmol/L, 50–122 min
  Receptor Occupancy: 82%

## Cc1c(C(=O)NN2CCCCC2)nn(-c2ccc(Cl)cc2Cl)c1-c1ccc(Cl)cc1 [Rimonabant, 5-(4-Chlorophenyl)-1-(2,4-dichloro-phenyl)-4-methyl-N-(piperidin-1-yl)-1H-pyrazole-3-carboxamide]
Body weight [1]
  Maximal in vivo body weight loss (% of baseline): ~20% of baseline
[5]; 5 mg dose vs. selected 20 mg dose
  Suicidality in the clinic: absence of a detectable rise in suicidality
[5]; 5 mg dose
  Weight loss in the clinic: significant (albeit modest) weight loss
[6]; ref FDA, 2007
  Protein bound: > 99.9%

## C[C@H](NC(=O)C(C)(C)Oc1ccc(C(F)(F)F)cn1)[C@@H](Cc1ccc(Cl)cc1)c1cccc(C#N)c1 [Taranabant, N-[(2S,3S)-4-(4-Chlorophenyl)-3-(3-cyanophenyl)-2-butanyl]-2-methyl-2-{[5-(trifluoromethyl)-2-pyridinyl]oxy}propanamide, reference compound]
mCB1R
  Ki: 0.01 ± 0.001 nM
Body weight [1]
  Maximal in vivo body weight loss (% of baseline): ~30% of baseline
CB1R [2]; 0.2 mg/kg (highest dose)
  AUC50–122min difference compared to baseline: −29%
CB1R [7]
  CB1R occupancy that may be sufficient for appetite- and body weight-reducing efficacy: 10 to 40%
[6]; ref Li et al., 2010
  Protein bound: > 98%
CB1R [4]; non-human primates, typically around
  CB1R occupancy at exposures corresponding to those needed for optimal clinical efficacy: 20–30%
CB1R [4]; striatum, 0.005 mg/kg i.v., monkey 7, plasma 0.002 μmol/L, 50–122 min
  Receptor Occupancy: 1.7%
CB1R [4]; striatum, 0.015 mg/kg i.v., monkey 7, plasma 0.010 μmol/L, 50–122 min
  Receptor Occupancy: −3.9%
CB1R [4]; striatum, 0.05 mg/kg i.v., monkey 1, plasma 0.015 μmol/L, 50–122 min
  Receptor Occupancy: 35%
CB1R [4]; striatum, 0.2 mg/kg i.v., monkey 1, plasma 0.093 μmol/L, 50–122 min
  Receptor Occupancy: 94%
CB1R [4]; striatum, present study
  Plasma concentration corresponding to 20–30% CB1R occupancy: 0.01 to 0.02 µmol/L

## N#Cc1ccc(S(=O)(=O)N=C(N)N2CC(c3ccccc3)C(c3ccc(Cl)cc3)=N2)cc1 (stereo not drawn) [[^11C]SD5024]
[8]
  Peak radioactivity in brain (range): 2.6 to 4.2 % ID
CB1R [9]
  IC50: 2.8 nM
  Ki: 0.5 nM
